Experimental data as given in ChEMBL document CHEMBL3046683, “Anti-inflammatory and analgesic activities of a new cucurbitacin isolated from Citrullus colocynthis seeds” (2013).

Legend:
Mus musculus [1] = assay: Analgesic activity in Swiss albino Mus musculus (mouse) assessed as inhibition of phenylbenzoquinone-induced writhing at 200 mg/kg, sc administered 30 min prior to acetic acid challenge measured for 30 min post phenylbenzoquinone challenge relative to control; type: functional; details: route subcutaneous
Mus musculus [2] = assay: Analgesic activity in Swiss albino Mus musculus (mouse) assessed as inhibition of acetic acid-induced writhing at 200 mg/kg, sc administered 30 min prior to acetic acid challenge measured for 30 min post acetic acid challenge relative to control; type: functional; details: route subcutaneous
Rattus norvegicus [3] = assay: Anti-inflammatory activity in Wistar Rattus norvegicus (rat) assessed as inhibition of carrageenan-induced paw edema at 0.5 mg/kg, ip administered 30 min prior to carrageenan-challenge measured at 6 hr by plethysmometric analysis relative to control; type: functional; details: route intraperitoneal
Mus musculus [4] = assay: Analgesic activity in sc dosed Swiss albino Mus musculus (mouse) assessed as inhibition of acetic acid-induced writhing administered 30 min prior to acetic acid challenge measured for 30 min post acetic acid challenge relative to control; type: functional, organism-based
Mus musculus [5] = assay: Analgesic activity in sc dosed Swiss albino Mus musculus (mouse) assessed as inhibition of phenylbenzoquinone-induced writhing administered 30 min prior to acetic acid challenge measured for 30 min post phenylbenzoquinone challenge relative to control; type: functional, organism-based
Mus musculus [6] = assay: Analgesic activity in Swiss albino Mus musculus (mouse) assessed as inhibition of acetic acid-induced writhing at 0.1 mg/kg, sc administered 30 min prior to acetic acid challenge measured for 30 min post acetic acid challenge relative to control; type: functional; details: route subcutaneous
Mus musculus [7] = assay: Analgesic activity in Swiss albino Mus musculus (mouse) assessed as inhibition of acetic acid-induced writhing at 0.05 mg/kg, sc administered 30 min prior to acetic acid challenge measured for 30 min post acetic acid challenge relative to control; type: functional; details: route subcutaneous
Rattus norvegicus [8] = assay: Anti-inflammatory activity in Wistar Rattus norvegicus (rat) assessed as inhibition of carrageenan-induced paw edema at 0.1 mg/kg, ip administered 30 min prior to carrageenan-challenge measured at 5 hr by plethysmometric analysis relative to control; type: functional; details: route intraperitoneal
Mus musculus [9] = assay: Analgesic activity in Swiss albino Mus musculus (mouse) assessed as inhibition of phenylbenzoquinone-induced writhing at 0.05 mg/kg, sc administered 30 min prior to acetic acid challenge measured for 30 min post phenylbenzoquinone challenge relative to control; type: functional; details: route subcutaneous
Mus musculus [10] = assay: Analgesic activity in Swiss albino Mus musculus (mouse) assessed as inhibition of phenylbenzoquinone-induced writhing at 0.5 mg/kg, sc administered 30 min prior to acetic acid challenge measured for 30 min post phenylbenzoquinone challenge relative to control; type: functional; details: route subcutaneous
Rattus norvegicus [11] = assay: Anti-inflammatory activity in Wistar Rattus norvegicus (rat) assessed as inhibition of carrageenan-induced paw edema at 0.5 mg/kg, ip administered 30 min prior to carrageenan-challenge measured at 2 hr by plethysmometric analysis relative to control; type: functional; details: route intraperitoneal
Rattus norvegicus [12] = assay: Anti-inflammatory activity in Wistar Rattus norvegicus (rat) assessed as inhibition of carrageenan-induced paw edema at 0.5 mg/kg, ip administered 30 min prior to carrageenan-challenge measured at 5 hr by plethysmometric analysis relative to control; type: functional; details: route intraperitoneal
Rattus norvegicus [13] = assay: Anti-inflammatory activity in Wistar Rattus norvegicus (rat) assessed as inhibition of carrageenan-induced paw edema at 0.1 mg/kg, ip administered 30 min prior to carrageenan-challenge measured at 3 hr by plethysmometric analysis relative to control; type: functional; details: route intraperitoneal
Rattus norvegicus [14] = assay: Anti-inflammatory activity in Wistar Rattus norvegicus (rat) assessed as inhibition of carrageenan-induced paw edema at 0.1 mg/kg, ip administered 30 min prior to carrageenan-challenge measured at 1 hr by plethysmometric analysis relative to control; type: functional; details: route intraperitoneal
Rattus norvegicus [15] = assay: Anti-inflammatory activity in Wistar Rattus norvegicus (rat) assessed as inhibition of carrageenan-induced paw edema at 0.1 mg/kg, ip administered 30 min prior to carrageenan-challenge measured at 6 hr by plethysmometric analysis relative to control; type: functional; details: route intraperitoneal
Rattus norvegicus [16] = assay: Anti-inflammatory activity in Wistar Rattus norvegicus (rat) assessed as inhibition of carrageenan-induced paw edema at 0.5 mg/kg, ip administered 30 min prior to carrageenan-challenge measured at 3 hr by plethysmometric analysis relative to control; type: functional; details: route intraperitoneal
Mus musculus [17] = assay: Analgesic activity in Swiss albino Mus musculus (mouse) assessed as inhibition of acetic acid-induced writhing at 0.5 mg/kg, sc administered 30 min prior to acetic acid challenge measured for 30 min post acetic acid challenge relative to control; type: functional; details: route subcutaneous
Rattus norvegicus [18] = assay: Anti-inflammatory activity in ip dosed Wistar Rattus norvegicus (rat) assessed as inhibition of carrageenan-induced paw edema administered 30 min prior to carrageenan-challenge measured at 1 to 6 hr by plethysmometric analysis relative to control; type: functional, organism-based
Rattus norvegicus [19] = assay: Anti-inflammatory activity in Wistar Rattus norvegicus (rat) assessed as inhibition of carrageenan-induced paw edema at 0.5 mg/kg, ip administered 30 min prior to carrageenan-challenge measured at 4 hr by plethysmometric analysis relative to control; type: functional; details: route intraperitoneal
Rattus norvegicus [20] = assay: Anti-inflammatory activity in Wistar Rattus norvegicus (rat) assessed as inhibition of carrageenan-induced paw edema at 0.5 mg/kg, ip administered 30 min prior to carrageenan-challenge measured at 1 hr by plethysmometric analysis relative to control; type: functional; details: route intraperitoneal
Rattus norvegicus [21] = assay: Anti-inflammatory activity in Wistar Rattus norvegicus (rat) assessed as inhibition of carrageenan-induced paw edema at 0.1 mg/kg, ip administered 30 min prior to carrageenan-challenge measured at 2 hr by plethysmometric analysis relative to control; type: functional; details: route intraperitoneal
Rattus norvegicus [22] = assay: Anti-inflammatory activity in Wistar Rattus norvegicus (rat) assessed as inhibition of carrageenan-induced paw edema at 0.1 mg/kg, ip administered 30 min prior to carrageenan-challenge measured at 4 hr by plethysmometric analysis relative to control; type: functional; details: route intraperitoneal
Mus musculus [23] = assay: Analgesic activity in Swiss albino Mus musculus (mouse) assessed as inhibition of phenylbenzoquinone-induced writhing at 0.1 mg/kg, sc administered 30 min prior to acetic acid challenge measured for 30 min post phenylbenzoquinone challenge relative to control; type: functional; details: route subcutaneous
Rattus norvegicus [24] = assay: Anti-inflammatory activity in Wistar Rattus norvegicus (rat) assessed as inhibition of carrageenan-induced paw edema at 1 mg/kg, ip administered 30 min prior to carrageenan-challenge measured at 6 hr by plethysmometric analysis relative to control; type: functional; details: route intraperitoneal
Rattus norvegicus [25] = assay: Anti-inflammatory activity in Wistar Rattus norvegicus (rat) assessed as inhibition of carrageenan-induced paw edema at 1 mg/kg, ip administered 30 min prior to carrageenan-challenge measured at 2 hr by plethysmometric analysis relative to control; type: functional; details: route intraperitoneal
Rattus norvegicus [26] = assay: Anti-inflammatory activity in Wistar Rattus norvegicus (rat) assessed as inhibition of carrageenan-induced paw edema at 1 mg/kg, ip administered 30 min prior to carrageenan-challenge measured at 3 hr by plethysmometric analysis relative to control; type: functional; details: route intraperitoneal
Rattus norvegicus [27] = assay: Anti-inflammatory activity in Wistar Rattus norvegicus (rat) assessed as inhibition of carrageenan-induced paw edema at 1 mg/kg, ip administered 30 min prior to carrageenan-challenge measured at 5 hr by plethysmometric analysis relative to control; type: functional; details: route intraperitoneal
Rattus norvegicus [28] = assay: Anti-inflammatory activity in Wistar Rattus norvegicus (rat) assessed as inhibition of carrageenan-induced paw edema at 1 mg/kg, ip administered 30 min prior to carrageenan-challenge measured at 1 hr by plethysmometric analysis relative to control; type: functional; details: route intraperitoneal
Rattus norvegicus [29] = assay: Anti-inflammatory activity in Wistar Rattus norvegicus (rat) assessed as inhibition of carrageenan-induced paw edema at 1 mg/kg, ip administered 30 min prior to carrageenan-challenge measured at 4 hr by plethysmometric analysis relative to control; type: functional; details: route intraperitoneal

With `CC(=O)Oc1ccccc1C(=O)O` the inhibition in vivo at 200 mg/kg (Mus musculus [1]) was 60% and the inhibition in vivo at 200 mg/kg (Mus musculus [2]) was 62%.

`CC(C)(O)/C=C/C(=O)[C@](C)(O)[C@H]1[C@H](O)C[C@@]2(C)[C@@H]3CC=C4[C@@H](C=C(O[C@@H]5O[C@H](CO)[C@@H](O)[C@H](O)[C@H]5O)C(=O)C4(C)C)[C@]3(C)CC[C@]12C` was tested, and the inhibition in vivo at 0.5 mg/kg (Rattus norvegicus [3]) was 84%, the inhibition (Mus musculus [4]) was “Dose-dependent effect” and the inhibition (Mus musculus [5]) was “Dose-dependent effect”. It also gave an inhibition in vivo at 0.1 mg/kg (Mus musculus [6]) of 88%, an inhibition in vivo at 0.05 mg/kg (Mus musculus [7]) of 86% and an inhibition in vivo at 0.1 mg/kg (Rattus norvegicus [8]) of 72%. The inhibition in vivo at 0.05 mg/kg (Mus musculus [9]) was 80%, the inhibition in vivo at 0.5 mg/kg (Mus musculus [10]) was 89% and the inhibition in vivo at 0.5 mg/kg (Rattus norvegicus [11]) was 40%. For the same molecule, the inhibition in vivo at 0.5 mg/kg (Rattus norvegicus [12]) was 84%, the inhibition in vivo at 0.1 mg/kg (Rattus norvegicus [13]) was 40% and the inhibition in vivo at 0.1 mg/kg (Rattus norvegicus [14]) was 12%. The inhibition in vivo at 0.1 mg/kg (Rattus norvegicus [15]) was 73%, the inhibition in vivo at 0.5 mg/kg (Rattus norvegicus [16]) was 58% and the inhibition in vivo at 0.5 mg/kg (Mus musculus [17]) was 92%. The inhibition (Rattus norvegicus [18]) was “Dose-dependent effect”, the inhibition in vivo at 0.5 mg/kg (Rattus norvegicus [19]) was 80% and the inhibition in vivo at 0.5 mg/kg (Rattus norvegicus [20]) was 38%. The inhibition in vivo at 0.1 mg/kg (Rattus norvegicus [21]) was 13%, the inhibition in vivo at 0.1 mg/kg (Rattus norvegicus [22]) was 60% and the inhibition in vivo at 0.1 mg/kg (Mus musculus [23]) was 84%.

In the case of `C[C@@H]1C[C@H]2[C@@H]3CCC4=CC(=O)C=C[C@]4(C)[C@@]3(F)[C@@H](O)C[C@]2(C)[C@@]1(O)C(=O)CO` [DEXAMETHASONE], the inhibition in vivo at 1 mg/kg (Rattus norvegicus [24]) is reported as 89%, the inhibition in vivo at 1 mg/kg (Rattus norvegicus [25]) is reported as 33% and the inhibition in vivo at 1 mg/kg (Rattus norvegicus [26]) is reported as 45%. It also gave an inhibition in vivo at 1 mg/kg (Rattus norvegicus [27]) of 87%, an inhibition in vivo at 1 mg/kg (Rattus norvegicus [28]) of 29% and an inhibition in vivo at 1 mg/kg (Rattus norvegicus [29]) of 71%.
